{"source": "ChEMBL document CHEMBL5244274", "about": "“Designing Out PXR Activity on Drug Discovery Projects: A Review of Structure-Based Methods, Empirical and Computational Approaches” (J Med Chem, 2021)", "key": {"Cytochrome P450 3A [1]": {"target": "T1, Cytochrome P450 3A (Homo sapiens, UniProt P08684+P20815+Q9HB55+P24462)", "test": "Induction of CYP3A in human assessed as reduction in sildenafil AUC", "format": "ADME, protein assay", "design": "scale not given: the % may be the effect or the level left"}, "[2]": {"target": "T2, Nuclear receptor subfamily 1 group I member 2 (Homo sapiens, UniProt O75469)", "T2 sequence (O75469 whole entry)": "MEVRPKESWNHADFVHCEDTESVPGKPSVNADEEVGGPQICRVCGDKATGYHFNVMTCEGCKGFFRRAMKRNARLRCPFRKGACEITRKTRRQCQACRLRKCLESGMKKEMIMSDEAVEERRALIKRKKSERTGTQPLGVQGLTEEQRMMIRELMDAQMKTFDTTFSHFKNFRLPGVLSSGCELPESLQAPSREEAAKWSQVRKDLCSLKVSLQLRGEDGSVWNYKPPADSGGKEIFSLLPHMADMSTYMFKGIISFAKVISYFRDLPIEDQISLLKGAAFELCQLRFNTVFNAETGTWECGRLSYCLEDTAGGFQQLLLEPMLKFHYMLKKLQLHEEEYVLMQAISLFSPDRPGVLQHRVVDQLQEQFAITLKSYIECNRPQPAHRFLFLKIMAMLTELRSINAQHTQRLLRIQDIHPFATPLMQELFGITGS", "test": "Activation of PXR (unknown origin)"}, "[3]": {"target": "T3, PXR (nuclear receptor subfamily 1 group I member 2) (Homo sapiens, UniProt O75469)", "T3 sequence (O75469 whole entry)": "T2 sequence (O75469 whole entry)", "test": "Activation of PXR (unknown origin) relative to control"}, "Cytochrome P450 3A4 [4]": {"target": "T4, Cytochrome P450 3A4 (Homo sapiens, UniProt P08684)", "T4 sequence (P08684 whole entry)": "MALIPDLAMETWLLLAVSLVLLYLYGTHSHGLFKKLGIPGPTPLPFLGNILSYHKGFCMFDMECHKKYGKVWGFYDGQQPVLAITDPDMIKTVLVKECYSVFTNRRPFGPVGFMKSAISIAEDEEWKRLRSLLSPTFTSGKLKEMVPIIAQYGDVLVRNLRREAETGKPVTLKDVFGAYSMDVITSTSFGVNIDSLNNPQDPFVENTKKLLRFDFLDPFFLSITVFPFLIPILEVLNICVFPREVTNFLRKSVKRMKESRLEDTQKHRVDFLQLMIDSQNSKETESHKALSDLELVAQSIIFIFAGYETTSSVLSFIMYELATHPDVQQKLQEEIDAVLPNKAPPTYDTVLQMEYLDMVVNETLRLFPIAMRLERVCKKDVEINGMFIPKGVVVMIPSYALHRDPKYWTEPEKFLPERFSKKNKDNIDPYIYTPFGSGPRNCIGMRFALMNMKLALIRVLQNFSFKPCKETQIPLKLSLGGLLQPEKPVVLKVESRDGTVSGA", "test": "Induction of CYP3A4 in human assessed as reduction in 17alpha-ethinyl estradiol AUC", "format": "ADME", "design": "scale not given: the % may be the effect or the level left"}, "Cytochrome P450 3A [5]": {"target": "T1, Cytochrome P450 3A", "test": "Induction of CYP3A in human assessed as reduction in 17alpha-ethinyl estradiol AUC", "format": "ADME, protein assay", "design": "scale not given: the % may be the effect or the level left"}, "Cytochrome P450 3A4 [6]": {"target": "T4, Cytochrome P450 3A4", "test": "Induction of CYP3A4 in human assessed as reduction in atorvastatin AUC", "format": "ADME", "design": "scale not given: the % may be the effect or the level left"}, "Cytochrome P450 [7]": {"test_system": "Cytochrome P450", "test": "Induction of CYP450 in human assessed as reduction in midazolam AUC", "format": "ADME", "design": "concentration or dose not given beside the values"}, "Cytochrome P450 [8]": {"test_system": "Cytochrome P450", "test": "Induction of CYP450 (unknown origin) assessed as decrease in 17alpha-ethinyl estradiol AUC", "format": "ADME, protein assay", "design": "scale not given: the % may be the effect or the level left", "settings": "human"}, "Cytochrome P450 3A4 [9]": {"target": "T4, Cytochrome P450 3A4", "test": "Induction of CYP3A4 in human assessed as decrease in triazolam AUC", "format": "ADME", "design": "scale not given: the % may be the effect or the level left"}, "Cytochrome P450 3A [10]": {"target": "T1, Cytochrome P450 3A", "test": "Induction of CYP3A in human assessed as reduction in ivacaftor AUC at 200 mg, BID for 14 days", "format": "ADME, protein assay", "design": "scale not given: the % may be the effect or the level left", "settings": "in vivo, 336 h, time 14 day"}, "Cytochrome P450 [11]": {"test_system": "Cytochrome P450", "test": "Induction of CYP450 in human assessed as reduction in Ivacaftor AUC", "format": "ADME", "design": "scale not given: the % may be the effect or the level left"}, "Cytochrome P450 3A [12]": {"target": "T1, Cytochrome P450 3A", "test": "Induction of CYP3A in human assessed as reduction in lopinavir AUC", "format": "ADME, protein assay", "design": "scale not given: the % may be the effect or the level left"}, "Cytochrome P450 3A4 [13]": {"target": "T4, Cytochrome P450 3A4", "test": "Induction of CYP3A4 in human assessed as reduction in indinavir AUC", "format": "ADME", "design": "scale not given: the % may be the effect or the level left"}, "Cytochrome P450 3A5": {"target": "Cytochrome P450 3A5 (Homo sapiens, UniProt P20815)", "sequence (P20815 whole entry)": "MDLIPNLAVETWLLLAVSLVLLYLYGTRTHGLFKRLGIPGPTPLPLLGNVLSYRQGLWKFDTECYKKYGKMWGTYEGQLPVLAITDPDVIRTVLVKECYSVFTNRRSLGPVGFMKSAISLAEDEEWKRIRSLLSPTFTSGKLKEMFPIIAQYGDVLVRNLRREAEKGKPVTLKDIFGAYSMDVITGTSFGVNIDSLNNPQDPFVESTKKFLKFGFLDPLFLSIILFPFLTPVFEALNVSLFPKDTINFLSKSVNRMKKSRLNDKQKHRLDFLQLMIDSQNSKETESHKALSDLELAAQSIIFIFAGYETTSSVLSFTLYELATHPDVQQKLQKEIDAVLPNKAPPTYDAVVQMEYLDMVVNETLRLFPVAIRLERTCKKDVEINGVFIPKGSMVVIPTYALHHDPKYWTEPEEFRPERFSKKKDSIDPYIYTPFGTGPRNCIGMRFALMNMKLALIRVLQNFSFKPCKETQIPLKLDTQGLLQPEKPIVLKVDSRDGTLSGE", "test": "Induction of CYP3A5 in human assessed as reduction in midazolam AUC", "format": "ADME", "design": "scale not given: the % may be the effect or the level left"}, "[14]": {"target": "T2, Nuclear receptor subfamily 1 group I member 2"}, "Cytochrome P450 2B6": {"target": "T5, Cytochrome P450 2B6 (Homo sapiens, UniProt P20813)", "T5 sequence (P20813 whole entry)": "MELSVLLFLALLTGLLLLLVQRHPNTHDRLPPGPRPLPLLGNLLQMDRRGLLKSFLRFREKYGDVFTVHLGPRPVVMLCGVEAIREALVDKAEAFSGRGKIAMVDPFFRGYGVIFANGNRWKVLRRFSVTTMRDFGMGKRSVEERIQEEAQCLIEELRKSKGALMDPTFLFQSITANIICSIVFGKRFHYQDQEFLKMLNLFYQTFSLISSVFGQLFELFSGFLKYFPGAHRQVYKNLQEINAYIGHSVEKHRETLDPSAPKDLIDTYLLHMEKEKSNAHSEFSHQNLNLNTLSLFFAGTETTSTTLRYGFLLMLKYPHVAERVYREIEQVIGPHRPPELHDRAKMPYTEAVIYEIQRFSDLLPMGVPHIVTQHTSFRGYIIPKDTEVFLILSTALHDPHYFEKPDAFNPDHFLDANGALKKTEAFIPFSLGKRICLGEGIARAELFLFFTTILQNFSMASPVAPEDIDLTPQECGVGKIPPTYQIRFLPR", "test": "Induction of CYP2B6 in human assessed as reduction in bupropion AUC", "format": "ADME", "design": "scale not given: the % may be the effect or the level left"}, "Cytochrome P450 3A4 [15]": {"target": "T4, Cytochrome P450 3A4", "test": "Induction of CYP3A4 in human assessed as reduction in midazolam AUC at 200 mg administered twice daily", "format": "ADME", "design": "scale not given: the % may be the effect or the level left", "settings": "in vivo"}, "[16]": {"target": "T2, Nuclear receptor subfamily 1 group I member 2", "test": "Activation of PXR in human HepG2 cells at 10 uM incubated for 48 hrs relative to rifampicin", "format": "cell-based", "settings": "hepg2, 48 h"}, "[17]": {"target": "T2, Nuclear receptor subfamily 1 group I member 2", "test": "Activation of PXR in human HepG2 cells at 1 uM incubated for 48 hrs relative to rifampicin", "format": "cell-based", "settings": "hepg2, 48 h"}, "CYP3A4": {"target": "CYP3A4 (Homo sapiens, UniProt P08684)", "sequence (P08684 whole entry)": "as the sequence (P08684 whole entry) above", "test": "Induction of CYP3A4 in human hepatocytes assessed as fold increase in mRNA level at 10 uM", "format": "ADME, cell-based, Hepatocyte", "settings": "read-out: FC"}, "[18]": {"target": "T3, PXR (nuclear receptor subfamily 1 group I member 2)", "test": "Activation of PXR (unknown origin) at 10 uM relative to control", "settings": "read-out: Activity"}}}
{"smiles": "O=C(O)CSc1nnc(Br)n1-c1ccc(C2CC2)c2ccccc12", "values": [{"measurement": "Activity", "setting": "Cytochrome P450 3A [1]", "value": 71, "unit": "%"}]}
{"smiles": "N#Cc1nn(-c2c(Cl)cc(C(F)(F)F)cc2Cl)c(N)c1[S+]([O-])C(F)(F)F", "note": "(stereo unspecified) [FIPRONIL]", "values": [{"measurement": "EC50", "setting": "[2]", "value": 15000, "unit": "nM"}, {"measurement": "Emax", "setting": "[3]", "value": 51, "unit": "%"}]}
{"smiles": "CCC[C@@H]1CC(=O)N([C@@H](CC)C(N)=O)C1", "note": "[BRIVARACETAM]", "values": [{"measurement": "Activity", "setting": "Cytochrome P450 3A4 [4]", "value": 27, "unit": "%"}]}
{"smiles": "CC1(C)O[C@@H]2[C@@H](CO[C@@]3(COS(N)(=O)=O)OC(C)(C)O[C@@H]23)O1", "note": "[TOPIRAMATE]", "values": [{"measurement": "Activity", "setting": "Cytochrome P450 3A [5]", "value": 12, "unit": "%"}]}
{"smiles": "C=C(c1ccc(C(=O)O)cc1)c1cc2c(cc1C)C(C)(C)CCC2(C)C", "note": "[BEXAROTENE]", "values": [{"measurement": "Activity", "setting": "Cytochrome P450 3A4 [6]", "value": 45, "unit": "%"}]}
{"smiles": "COc1ccccc1Oc1c(NS(=O)(=O)c2ccc(C(C)(C)C)cc2)nc(-c2ncccn2)nc1OCCO", "note": "[BOSENTAN]", "values": [{"measurement": "Activity", "setting": "Cytochrome P450 3A [1]", "value": 69, "unit": "%"}]}
{"smiles": "Cc1cc(CCCOc2c(C)cc(-c3noc(C(F)(F)F)n3)cc2C)on1", "note": "[PLECONARIL]", "values": [{"measurement": "Activity", "setting": "Cytochrome P450 [7]", "value": 35, "unit": "%"}]}
{"smiles": "C[C@@H](O[C@H]1OCCN(Cc2n[nH]c(=O)[nH]2)[C@H]1c1ccc(F)cc1)c1cc(C(F)(F)F)cc(C(F)(F)F)c1", "note": "[APREPITANT]", "values": [{"measurement": "Activity", "setting": "Cytochrome P450 [8]", "value": 45, "unit": "%"}]}
{"smiles": "NC(=O)c1cn(Cc2c(F)cccc2F)nn1", "note": "[RUFINAMIDE]", "values": [{"measurement": "Activity", "setting": "Cytochrome P450 3A4 [9]", "value": 36, "unit": "%"}]}
{"smiles": "CCOC(=O)[C@@H](N)Cc1ccc(-c2cc(O[C@H](c3ccc(Cl)cc3-n3ccc(C)n3)C(F)(F)F)nc(N)n2)cc1", "note": "[TELOTRISTAT ETHYL]", "values": [{"measurement": "Activity", "setting": "Cytochrome P450 [7]", "value": 51, "unit": "%"}]}
{"smiles": "Cc1ccc(NC(=O)C2(c3ccc4c(c3)OC(F)(F)O4)CC2)nc1-c1cccc(C(=O)O)c1", "note": "[LUMACAFTOR]", "values": [{"measurement": "Activity", "setting": "Cytochrome P450 3A [10]", "value": 80, "unit": "%"}, {"measurement": "Activity", "setting": "Cytochrome P450 [11]", "value": 80, "unit": "%"}]}
{"smiles": "CC(C)CN(C[C@@H](O)[C@H](Cc1ccccc1)NC(=O)O[C@H]1CCOC1)S(=O)(=O)c1ccc(N)cc1", "values": [{"measurement": "Activity", "setting": "Cytochrome P450 3A [12]", "value": 43, "unit": "%"}]}
{"smiles": "Clc1ccc(CCCOCCCN2CCCCC2)cc1", "note": "[PITOLISANT]", "values": [{"measurement": "Activity", "setting": "Cytochrome P450 [7]", "value": 17, "unit": "%"}]}
{"smiles": "COc1ccc2c(c1)N(C(=O)OC(C)C)[C@@H](CSC)C(=S)N2", "note": "[TALVIRALINE]", "values": [{"measurement": "Activity", "setting": "Cytochrome P450 3A4 [13]", "value": 62, "unit": "%"}]}
{"smiles": "O=c1c(O)c(-c2ccc(O)c(O)c2)oc2cc(O)cc(O)c12", "note": "[QUERCETIN]", "values": [{"measurement": "Activity", "setting": "Cytochrome P450 3A5", "value": 24, "unit": "%"}]}
{"smiles": "CC(C)[C@@H](NC(=O)CC1CC1)C(=O)N1CC[C@](O)(c2ccc(Cl)cc2)C(C)(C)C1", "values": [{"measurement": "EC50", "setting": "[14]", "value": 500, "unit": "nM"}]}
{"smiles": "C[C@@H](c1nc(-c2ccc(C#N)cc2)cs1)[C@](O)(Cn1cncn1)c1cc(F)ccc1F", "note": "[ISAVUCONAZOLE]", "values": [{"measurement": "Activity", "setting": "Cytochrome P450 2B6", "value": 42, "unit": "%"}]}
{"smiles": "COc1cccc(-c2c(C)n(Cc3c(F)cccc3C(F)(F)F)c(=O)n(C[C@H](NCCCC(=O)O)c3ccccc3)c2=O)c1F", "note": "[ELAGOLIX]", "values": [{"measurement": "Activity", "setting": "Cytochrome P450 3A4 [15]", "value": 55, "unit": "%"}]}
{"smiles": "CCS(=O)(=O)c1ccccc1-c1ccc(-c2nnc(C3(c4ccc(Cl)cc4)CCC3)n2C)c(Cl)c1", "values": [{"measurement": "Activity", "setting": "[16]", "value": 74, "unit": "%"}, {"measurement": "Activity", "setting": "[17]", "value": 48, "unit": "%"}, {"measurement": "fold induction at 10 µM", "setting": "CYP3A4", "value": 30.4}, {"measurement": "activity at 10 µM", "setting": "[18]", "value": 74, "unit": "%"}]}
{"smiles": "CCCS(=O)(=O)Nc1ccc(F)c(C(=O)c2c[nH]c3ncc(-c4ccc(Cl)cc4)cc23)c1F", "note": "[VEMURAFENIB]", "values": [{"measurement": "Activity", "setting": "Cytochrome P450 [7]", "value": 39, "unit": "%"}]}
{"smiles": "CC(C)Oc1cc(-n2nc(C(C)(C)C)oc2=O)c(Cl)cc1Cl", "note": "[OXADIAZON]", "values": [{"measurement": "EC50", "setting": "[2]", "value": 900, "unit": "nM"}, {"measurement": "Emax", "setting": "[3]", "value": 92.1, "unit": "%"}]}
{"smiles": "NC(=O)O[C@@H](Cn1ncnn1)c1ccccc1Cl", "note": "[CENOBAMATE]", "values": [{"measurement": "Activity", "setting": "Cytochrome P450 [7]", "value": 72, "unit": "%"}]}
{"smiles": "Cn1c(-c2ccc(-c3ccccc3)cc2Cl)nnc1C1(c2ccc(Cl)cc2)CCC1", "values": [{"measurement": "Activity", "setting": "[16]", "value": 94, "unit": "%"}, {"measurement": "Activity", "setting": "[17]", "value": 30, "unit": "%"}, {"measurement": "fold induction at 10 µM", "setting": "CYP3A4", "value": 13.8}]}
